# From PMC12217528, “Structural basis of topoisomerase targeting by delafloxacin” (Nature Communications, 2025)
# Legend:
# Assay type in all cases: biochemical
# [1] = molecular target: T1, DNA gyrase (GyrA subunit) (Streptococcus pneumoniae, UniProt P0A4M0+Q8DPM2); assay: supercoiled pBR322 DNA cleavage assay (cleavage complex stabilisation)
# T1 construct: full-length GyrA reconstituted with GyrB; with GyrB, with DNA
# [2] = molecular target: T2, topoisomerase IV (ParC subunit, ParE30-ParC55 fusion) (Streptococcus pneumoniae, UniProt P72525+Q59961); assay: X-ray co-crystal structures at […] and […] Å; DNA cleavage assay with purified enzyme; parameters: ParE30-ParC55 fusion protein (ParE TOPRIM domain + ParC breakage-reunion domain), C-terminal His6; with ParE (ParE30 TOPRIM domain), with 18-mer V-site or E-site gate DNA
# Target sequence in this assay (Q59961 404-647): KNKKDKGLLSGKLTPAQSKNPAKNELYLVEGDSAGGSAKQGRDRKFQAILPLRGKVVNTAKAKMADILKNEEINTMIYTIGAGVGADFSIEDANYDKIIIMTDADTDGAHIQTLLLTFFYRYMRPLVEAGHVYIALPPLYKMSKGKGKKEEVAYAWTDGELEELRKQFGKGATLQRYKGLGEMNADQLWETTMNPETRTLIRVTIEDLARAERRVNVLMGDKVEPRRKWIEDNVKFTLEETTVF
# Target sequence in this assay (P72525 1-490): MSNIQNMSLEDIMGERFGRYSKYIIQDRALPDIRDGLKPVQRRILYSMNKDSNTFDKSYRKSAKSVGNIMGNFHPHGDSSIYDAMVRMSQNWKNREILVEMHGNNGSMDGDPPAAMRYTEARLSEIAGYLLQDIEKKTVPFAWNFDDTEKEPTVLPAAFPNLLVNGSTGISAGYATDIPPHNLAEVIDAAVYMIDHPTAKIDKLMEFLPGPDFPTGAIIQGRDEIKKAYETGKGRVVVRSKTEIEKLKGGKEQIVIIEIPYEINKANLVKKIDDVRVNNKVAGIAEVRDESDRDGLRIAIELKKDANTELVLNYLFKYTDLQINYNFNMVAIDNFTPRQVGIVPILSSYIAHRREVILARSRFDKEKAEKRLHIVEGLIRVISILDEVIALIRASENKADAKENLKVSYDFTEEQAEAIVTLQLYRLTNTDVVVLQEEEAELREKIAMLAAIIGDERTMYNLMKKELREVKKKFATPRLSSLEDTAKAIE
# [3] = molecular target: T2, topoisomerase IV (ParC subunit, ParE30-ParC55 fusion); assay: supercoiled pBR322 DNA cleavage assay (cleavage complex stabilisation); parameters: ParE30-ParC55 fusion protein; with ParE (ParE30 TOPRIM domain), with DNA
# Target sequence in this assay (P72525 1-490): as above
# Target sequence in this assay (Q59961 404-647): as the sequence (Q59961 404-647) above
# T1 sequence (Q8DPM2 whole entry): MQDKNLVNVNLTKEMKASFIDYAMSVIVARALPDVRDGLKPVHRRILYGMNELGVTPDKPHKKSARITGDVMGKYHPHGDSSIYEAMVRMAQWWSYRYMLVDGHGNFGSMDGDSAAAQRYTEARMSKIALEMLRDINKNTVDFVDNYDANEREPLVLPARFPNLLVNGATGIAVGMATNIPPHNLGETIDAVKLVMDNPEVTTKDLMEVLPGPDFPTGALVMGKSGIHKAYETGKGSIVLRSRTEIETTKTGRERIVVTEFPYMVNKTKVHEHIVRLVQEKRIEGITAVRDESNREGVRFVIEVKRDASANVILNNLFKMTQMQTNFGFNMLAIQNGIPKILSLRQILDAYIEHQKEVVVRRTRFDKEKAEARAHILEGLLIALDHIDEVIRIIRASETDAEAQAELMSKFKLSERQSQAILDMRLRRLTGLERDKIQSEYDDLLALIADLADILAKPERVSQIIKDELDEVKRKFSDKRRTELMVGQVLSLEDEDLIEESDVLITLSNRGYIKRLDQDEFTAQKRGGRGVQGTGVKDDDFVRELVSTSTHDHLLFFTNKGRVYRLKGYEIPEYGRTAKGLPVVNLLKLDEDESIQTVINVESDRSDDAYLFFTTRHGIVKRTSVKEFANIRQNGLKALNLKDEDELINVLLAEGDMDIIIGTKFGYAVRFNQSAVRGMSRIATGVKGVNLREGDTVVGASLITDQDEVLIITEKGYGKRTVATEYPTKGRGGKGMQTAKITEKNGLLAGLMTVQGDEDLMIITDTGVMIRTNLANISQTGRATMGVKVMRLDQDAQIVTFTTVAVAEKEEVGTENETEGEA
# T1 sequence (P0A4M0 whole entry): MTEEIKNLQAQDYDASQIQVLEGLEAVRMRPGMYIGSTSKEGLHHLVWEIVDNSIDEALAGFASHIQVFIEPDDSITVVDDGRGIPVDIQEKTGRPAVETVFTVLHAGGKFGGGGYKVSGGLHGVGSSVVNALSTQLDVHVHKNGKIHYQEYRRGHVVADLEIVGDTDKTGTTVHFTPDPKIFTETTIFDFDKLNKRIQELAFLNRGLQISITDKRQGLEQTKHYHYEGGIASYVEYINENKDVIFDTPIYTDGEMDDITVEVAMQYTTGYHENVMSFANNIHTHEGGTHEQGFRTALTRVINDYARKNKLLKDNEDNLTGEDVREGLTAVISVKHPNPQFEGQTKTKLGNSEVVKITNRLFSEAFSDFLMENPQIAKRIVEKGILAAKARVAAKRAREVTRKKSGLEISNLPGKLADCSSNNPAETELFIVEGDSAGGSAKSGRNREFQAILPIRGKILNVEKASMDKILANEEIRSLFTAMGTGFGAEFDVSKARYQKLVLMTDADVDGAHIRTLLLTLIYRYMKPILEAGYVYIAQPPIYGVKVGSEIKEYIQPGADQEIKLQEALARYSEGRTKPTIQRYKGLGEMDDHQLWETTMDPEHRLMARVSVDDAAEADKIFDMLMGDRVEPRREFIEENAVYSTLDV
SMILES,supercoiled pBR322 DNA cleavage assay (cleavage complex stabilisation) [1],X-ray co-crystal structures at 2.0 and 2.4 Å; DNA cleavage assay with purified e [2] [µM],supercoiled pBR322 DNA cleavage assay (cleavage complex stabilisation) [3] [µM]
Nc1nc(-n2cc(C(=O)O)c(=O)c3cc(F)c(N4CC(O)C4)c(Cl)c32)c(F)cc1F [Delafloxacin],2.5–5.0 µM,0.12,
C[C@H]1COc2c(N3CCN(C)CC3)c(F)cc3c(=O)c(C(=O)O)cn1c23 [Levofloxacin],,,2.5
